Source: publication PMC8047011, “Enantiomers of 2-methylglutamate and 2-methylglutamine selectively impact mouse brain metabolism and behavior” (Scientific Reports, 2021)
Where two headings read alike, the source gives them in different places.

How the values were obtained:
mGluR1 = target: T1, mGluR1 (Rattus norvegicus, UniProt P23385); assay: mGluR1 radioligand binding assay; settings: triplicate
T1 construct: purchased SB Drug Discovery (CNS discovery panel, FLIPR); Eurofins Discovery (Cerep)
Method: (§1) mGluR1, mGluR2, mGluR5 and GABAB binding assays were performed by Eurofins Discovery. […]
(§2) [3H]CGP-54626 and [3H]quisqalic acid, respectively. All compounds were tested at a single
(§3) concentration of 100 uM in triplicate. […]

mGluR2 = target: T2, mGluR2 (Homo sapiens, UniProt Q14416); assay: mGluR2 radioligand binding assay; settings: triplicate
T2 construct: purchased SB Drug Discovery (CNS discovery panel, FLIPR); Eurofins Discovery (Cerep)
T2 sequence (Q14416 19-872): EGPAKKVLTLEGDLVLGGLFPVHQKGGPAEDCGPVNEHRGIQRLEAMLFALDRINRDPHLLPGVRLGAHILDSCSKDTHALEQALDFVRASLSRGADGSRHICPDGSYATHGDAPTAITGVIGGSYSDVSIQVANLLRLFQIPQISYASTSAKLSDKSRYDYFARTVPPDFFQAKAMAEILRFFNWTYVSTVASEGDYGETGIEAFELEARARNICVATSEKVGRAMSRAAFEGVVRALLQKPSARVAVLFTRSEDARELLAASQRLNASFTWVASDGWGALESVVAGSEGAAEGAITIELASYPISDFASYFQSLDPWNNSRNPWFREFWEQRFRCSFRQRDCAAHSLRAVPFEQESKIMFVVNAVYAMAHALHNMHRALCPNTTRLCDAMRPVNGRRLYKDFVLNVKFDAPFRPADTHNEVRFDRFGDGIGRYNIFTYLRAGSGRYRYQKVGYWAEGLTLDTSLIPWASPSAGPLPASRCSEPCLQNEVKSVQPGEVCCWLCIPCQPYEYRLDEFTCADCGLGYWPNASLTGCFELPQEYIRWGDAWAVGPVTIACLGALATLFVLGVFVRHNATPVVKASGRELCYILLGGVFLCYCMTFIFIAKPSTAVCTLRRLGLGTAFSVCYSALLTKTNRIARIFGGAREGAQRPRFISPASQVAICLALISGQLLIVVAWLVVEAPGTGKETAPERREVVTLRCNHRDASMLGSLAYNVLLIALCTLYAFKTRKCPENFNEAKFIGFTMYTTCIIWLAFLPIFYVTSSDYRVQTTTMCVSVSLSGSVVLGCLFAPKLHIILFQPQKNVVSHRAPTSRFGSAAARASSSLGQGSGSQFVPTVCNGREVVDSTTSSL
Method: as §1, §2, §3

mGluR5 = target: T3, mGluR5 (Homo sapiens, UniProt P41594); assay: mGluR5 radioligand binding assay; settings: triplicate
T3 construct: purchased SB Drug Discovery (CNS discovery panel, FLIPR); Eurofins Discovery (Cerep)
T3 sequence (P41594 21-1212): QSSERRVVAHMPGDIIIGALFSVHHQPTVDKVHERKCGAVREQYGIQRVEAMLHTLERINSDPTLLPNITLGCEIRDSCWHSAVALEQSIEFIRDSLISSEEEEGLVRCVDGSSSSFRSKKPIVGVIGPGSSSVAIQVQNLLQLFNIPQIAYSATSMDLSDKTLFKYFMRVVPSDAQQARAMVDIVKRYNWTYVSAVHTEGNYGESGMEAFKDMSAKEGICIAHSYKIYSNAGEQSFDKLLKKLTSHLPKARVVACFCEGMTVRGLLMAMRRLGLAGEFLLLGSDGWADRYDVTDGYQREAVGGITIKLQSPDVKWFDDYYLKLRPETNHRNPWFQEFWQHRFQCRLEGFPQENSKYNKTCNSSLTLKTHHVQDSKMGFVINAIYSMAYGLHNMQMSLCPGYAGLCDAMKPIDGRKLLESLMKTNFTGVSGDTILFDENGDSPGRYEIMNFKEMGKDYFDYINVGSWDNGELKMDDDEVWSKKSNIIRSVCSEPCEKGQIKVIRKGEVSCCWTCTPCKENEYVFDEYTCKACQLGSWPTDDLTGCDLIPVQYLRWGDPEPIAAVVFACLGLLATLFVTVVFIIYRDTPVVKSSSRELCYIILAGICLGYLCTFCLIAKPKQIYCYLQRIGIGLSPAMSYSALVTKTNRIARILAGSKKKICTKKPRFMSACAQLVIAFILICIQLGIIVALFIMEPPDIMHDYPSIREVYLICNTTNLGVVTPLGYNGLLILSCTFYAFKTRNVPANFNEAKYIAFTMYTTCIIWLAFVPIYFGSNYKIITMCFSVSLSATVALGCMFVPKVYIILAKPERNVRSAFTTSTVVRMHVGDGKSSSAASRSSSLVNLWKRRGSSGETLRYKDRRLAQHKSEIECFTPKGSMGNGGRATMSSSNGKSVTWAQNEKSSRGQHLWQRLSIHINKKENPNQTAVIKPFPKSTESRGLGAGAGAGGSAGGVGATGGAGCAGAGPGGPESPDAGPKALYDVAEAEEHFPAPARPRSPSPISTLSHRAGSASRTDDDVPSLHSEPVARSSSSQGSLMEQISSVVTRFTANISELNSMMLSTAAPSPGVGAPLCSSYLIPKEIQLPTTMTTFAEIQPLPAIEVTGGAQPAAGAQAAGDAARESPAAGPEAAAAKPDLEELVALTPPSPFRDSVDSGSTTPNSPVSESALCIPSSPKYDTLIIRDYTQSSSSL
Method: as §1
(§4) mGluR5 and GABAB binding assays were performed using recombinant CHO-K1 cells and
as §2, §3

AMPA nonspecific = assay: Nonspecific AMPA binding assay; settings: 100 μM, triplicate; rat
Method: Nonspecific AMPA, kainate and NMDA binding assays were performed by Eurofins Discovery
(Cerep) using rat cerebral cortex membranes and radiolabeled [3H]AMPA, [3H]kainic acid and
[3H]CGP 39653, respectively. […]

GABAA α2β2γ2 = target: T4, GABAA α2β2γ2 (Homo sapiens, UniProt P47869+P47870); assay: FLIPR functional receptor assay, GABAA α2β2γ2; format: cell-based; settings: agonist mode; top test concentration 1 mM
T4 construct: host or cells: HEK 293
T4 sequence (P47869 29-451): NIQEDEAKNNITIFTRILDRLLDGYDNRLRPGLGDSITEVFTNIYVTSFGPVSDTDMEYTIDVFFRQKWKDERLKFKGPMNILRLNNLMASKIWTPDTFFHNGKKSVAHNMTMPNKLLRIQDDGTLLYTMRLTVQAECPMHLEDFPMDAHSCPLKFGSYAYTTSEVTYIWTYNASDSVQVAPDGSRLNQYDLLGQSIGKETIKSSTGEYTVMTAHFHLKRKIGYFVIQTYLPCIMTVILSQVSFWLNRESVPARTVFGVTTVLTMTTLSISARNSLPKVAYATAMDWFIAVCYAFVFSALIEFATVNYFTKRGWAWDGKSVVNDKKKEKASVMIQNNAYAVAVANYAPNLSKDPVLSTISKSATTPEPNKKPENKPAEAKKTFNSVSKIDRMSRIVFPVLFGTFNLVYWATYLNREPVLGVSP
T4 sequence (P47870 25-512 limits assumed): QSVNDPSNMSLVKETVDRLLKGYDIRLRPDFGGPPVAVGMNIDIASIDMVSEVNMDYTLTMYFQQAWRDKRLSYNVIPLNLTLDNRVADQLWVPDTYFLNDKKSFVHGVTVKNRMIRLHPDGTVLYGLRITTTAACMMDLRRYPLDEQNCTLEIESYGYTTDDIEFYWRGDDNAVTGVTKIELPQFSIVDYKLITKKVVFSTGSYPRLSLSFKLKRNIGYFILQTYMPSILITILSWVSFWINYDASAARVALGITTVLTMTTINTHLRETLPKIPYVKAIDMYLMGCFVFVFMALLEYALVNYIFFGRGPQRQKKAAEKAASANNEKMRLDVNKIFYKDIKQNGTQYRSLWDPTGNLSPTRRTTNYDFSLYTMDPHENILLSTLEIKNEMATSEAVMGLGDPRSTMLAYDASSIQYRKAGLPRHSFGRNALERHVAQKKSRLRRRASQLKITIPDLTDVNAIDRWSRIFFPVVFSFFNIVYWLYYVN
T4 sequence (P18507 40-475 partner): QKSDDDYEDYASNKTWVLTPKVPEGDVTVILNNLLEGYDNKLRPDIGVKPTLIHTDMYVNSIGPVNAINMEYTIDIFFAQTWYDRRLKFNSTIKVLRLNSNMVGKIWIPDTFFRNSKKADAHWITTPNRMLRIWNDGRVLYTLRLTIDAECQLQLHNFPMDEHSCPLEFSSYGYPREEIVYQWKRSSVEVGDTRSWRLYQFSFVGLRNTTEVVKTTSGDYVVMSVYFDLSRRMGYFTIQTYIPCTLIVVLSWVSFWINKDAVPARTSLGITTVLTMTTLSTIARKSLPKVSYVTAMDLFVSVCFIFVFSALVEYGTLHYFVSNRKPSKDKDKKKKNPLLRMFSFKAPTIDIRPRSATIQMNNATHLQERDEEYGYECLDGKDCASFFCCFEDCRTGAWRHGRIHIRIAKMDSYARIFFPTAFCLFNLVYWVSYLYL
Method: (§5) Receptor functional & binding assays
(§6) Functional assays of all GABAA, NMDA (GluN2A–GluN2D) and AMPA (GluA2) receptor subunits were performed by SB Drug Discovery as a part of their CNS discovery panel using FLIPR technology. Briefly, receptor-expressing HEK 293 cell lines were incubated in a red membrane potential dye in HEPES:HBSS pH 7.4 buffer and the fluorescence (λex: 488, λex: 510–570) was monitored over time as the test compounds and/or reference compounds were added to the solution. In agonist assay, only test compounds were added. In positive allosteric modulator assay, cells were preincubated with test compounds and then low concentration (approximately EC20) of an appropriate agonist was added. In antagonist assay, cells were preincubated with test compounds and then high concentration (approximately EC80) of an appropriate agonist was added. For GABAA assays, GABA was used as the agonist, picrotoxin was used as the reference antagonist and allopregnanolone was used as the reference positive allosteric modulator (PAM). For NMDA assays, a mixture of glutamate, glycine and CaCl2 was used as the agonist, MK801 was the reference antagonist and pregnenolone sulfate or GNE 9278 were used as reference PAMs. […] All compounds were tested at 7 concentration points in triplicate and EC50/IC50 was determined where applicable. […]

GABAA α2β3γ2 = target: T5, GABAA α2β3γ2 (Homo sapiens, UniProt P28472+P47869); assay: FLIPR functional receptor assay, GABAA α2β3γ2; format: cell-based; settings: agonist mode; top test concentration 1 mM
T5 construct: host or cells: HEK 293
T5 sequence (P47869 29-451): as the sequence (P47869 29-451) above
T5 sequence (P28472 26-473): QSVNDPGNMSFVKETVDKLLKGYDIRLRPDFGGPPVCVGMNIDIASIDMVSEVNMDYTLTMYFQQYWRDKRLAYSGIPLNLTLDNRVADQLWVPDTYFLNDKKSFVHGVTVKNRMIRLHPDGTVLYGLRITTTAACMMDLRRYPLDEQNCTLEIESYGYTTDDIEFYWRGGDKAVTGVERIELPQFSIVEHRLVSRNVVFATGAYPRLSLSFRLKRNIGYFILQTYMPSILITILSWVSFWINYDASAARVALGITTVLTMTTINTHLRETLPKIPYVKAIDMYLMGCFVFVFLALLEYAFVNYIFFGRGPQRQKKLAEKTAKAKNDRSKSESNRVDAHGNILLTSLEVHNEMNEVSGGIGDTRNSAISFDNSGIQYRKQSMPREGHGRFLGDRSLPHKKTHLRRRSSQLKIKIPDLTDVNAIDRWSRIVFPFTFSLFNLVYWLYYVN
T5 sequence (P18507 40-475 partner): as the sequence (P18507 40-475 partner) above
Method: as §5, §6

GABAA α3β1γ2 = target: T6, GABAA α3β1γ2 (Homo sapiens, UniProt P18505+P34903); assay: FLIPR functional receptor assay, GABAA α3β1γ2; format: cell-based; settings: agonist mode; top test concentration 1 mM
T6 construct: host or cells: HEK 293
Method: as §5, §6

GABAA α3β2γ2 = target: T7, GABAA α3β2γ2 (Homo sapiens, UniProt P34903+P47870); assay: FLIPR functional receptor assay, GABAA α3β2γ2; format: cell-based; settings: agonist mode; top test concentration 1 mM
T7 construct: host or cells: HEK 293
T7 sequence (P34903 29-492): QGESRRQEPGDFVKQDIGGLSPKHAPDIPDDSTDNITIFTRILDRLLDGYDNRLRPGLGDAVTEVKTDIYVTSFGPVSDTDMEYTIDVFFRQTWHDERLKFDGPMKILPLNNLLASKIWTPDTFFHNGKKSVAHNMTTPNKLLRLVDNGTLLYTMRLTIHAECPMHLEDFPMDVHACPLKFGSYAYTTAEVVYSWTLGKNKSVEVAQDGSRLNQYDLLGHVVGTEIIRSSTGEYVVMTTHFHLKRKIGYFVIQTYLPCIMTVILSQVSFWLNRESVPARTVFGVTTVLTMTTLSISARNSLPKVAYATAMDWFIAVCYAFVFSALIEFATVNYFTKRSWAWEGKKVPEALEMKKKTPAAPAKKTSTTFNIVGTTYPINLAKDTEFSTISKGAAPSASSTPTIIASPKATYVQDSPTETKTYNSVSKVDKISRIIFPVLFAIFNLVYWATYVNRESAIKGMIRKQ
T7 sequence (P47870 25-512 limits assumed): as the sequence (P47870 25-512 limits assumed) above
T7 sequence (P18507 40-475 partner): as the sequence (P18507 40-475 partner) above
Method: as §5, §6

GABAA α3β3γ2 = target: T8, GABAA α3β3γ2 (Homo sapiens, UniProt P28472+P34903); assay: FLIPR functional receptor assay, GABAA α3β3γ2; format: cell-based; settings: top test concentration 1 mM; for EC50: agonist mode
T8 construct: host or cells: HEK 293
T8 sequence (P34903 29-492): as the sequence (P34903 29-492) above
T8 sequence (P28472 26-473): as the sequence (P28472 26-473) above
T8 sequence (P18507 40-475 partner): as the sequence (P18507 40-475 partner) above
Method: as §5
Functional assays of all GABAA, NMDA (GluN2A–GluN2D) and AMPA (GluA2) receptor subunits were performed by SB Drug Discovery as a part of their CNS discovery panel using FLIPR technology. Briefly, receptor-expressing HEK 293 cell lines were incubated in a red membrane potential dye in HEPES:HBSS pH 7.4 buffer and the fluorescence (λex: 488, λex: 510–570) was monitored over time as the test compounds and/or reference compounds were added to the solution. In agonist assay, only test compounds were added. In positive allosteric modulator assay, cells were preincubated with test compounds and then low concentration (approximately EC20) of an appropriate agonist was added. In antagonist assay, cells were preincubated with test compounds and then high concentration (approximately EC80) of an appropriate agonist was added. For GABAA assays, GABA was used as the agonist, picrotoxin was used as the reference antagonist and allopregnanolone was used as the reference positive allosteric modulator (PAM). For NMDA assays, a mixture of glutamate, glycine and CaCl2 was used as the agonist, MK801 was the reference antagonist and pregnenolone sulfate or GNE 9278 were used as reference PAMs. For AMPA assays, glutamate was used as the agonist, CNQX was the reference antagonist and cyclothiazide was used as the reference PAM. All compounds were tested at 7 concentration points in triplicate and EC50/IC50 was determined where applicable. […]

GABAB (B1/B2) = target: T9, GABAB (B1/B2) (Homo sapiens, UniProt Q9UBS5); assay: GABAB binding assay (B1/B2; nonsel); settings: triplicate, rat, read-out: % of radioligand binding inhibition, GABAB nonsel
T9 construct: purchased SB Drug Discovery (CNS discovery panel, FLIPR); Eurofins Discovery (Cerep)
Method: as §1, §4, §2, §3

GABAB (B1b/B2) = target: T10, GABAB (B1b/B2) (Homo sapiens, UniProt Q9UBS5); assay: GABAB (B1b/B2) binding assay; settings: triplicate, read-out: % of radioligand binding inhibition, GABAB (B1b/B2)
T10 construct: purchased SB Drug Discovery (CNS discovery panel, FLIPR); Eurofins Discovery (Cerep)
Method: as §1, §4, §2, §3

[1] = test system: mouse cerebral synaptosomes; assay: Potassium-induced neurotransmitter release assay; format: cell-based; settings: preincubated with 100 μM substrate 15 min 37 °C; high-potassium KRP buffer
Method: To each tube, 2.5 μL of a test compound solution (final concentration 100 μM) in Buffer KRP or Buffer KRP alone were added. Samples were incubated for 15 min at 37 °C, briefly chilled on ice, and then immediately centrifuged and washed twice with Buffer KRP. The resulting pellets were then resuspended in either Buffer KRP (500 μL) or Buffer K-KRP (500 μL). Samples were immediately centrifuged or incubated for 5, 10 or 15 min at 37 °C, then centrifuged and washed with Buffer KRP. Resulting pellets were resuspended in 400 μL of 60% ACN containing 2.5 μM Glu-d5 and 2.5 μM Gln-d5 as internal standards.

[2] = target: human glutamine synthetase (Homo sapiens, UniProt P15104); assay: Catalysis of 2MeGlu C5-amidation by human glutamine synthetase; format: biochemical; settings: 10 mM substrate, 5 ng/mL enzyme, ATP, NH4Cl
Sequence of human glutamine synthetase (P15104 whole entry): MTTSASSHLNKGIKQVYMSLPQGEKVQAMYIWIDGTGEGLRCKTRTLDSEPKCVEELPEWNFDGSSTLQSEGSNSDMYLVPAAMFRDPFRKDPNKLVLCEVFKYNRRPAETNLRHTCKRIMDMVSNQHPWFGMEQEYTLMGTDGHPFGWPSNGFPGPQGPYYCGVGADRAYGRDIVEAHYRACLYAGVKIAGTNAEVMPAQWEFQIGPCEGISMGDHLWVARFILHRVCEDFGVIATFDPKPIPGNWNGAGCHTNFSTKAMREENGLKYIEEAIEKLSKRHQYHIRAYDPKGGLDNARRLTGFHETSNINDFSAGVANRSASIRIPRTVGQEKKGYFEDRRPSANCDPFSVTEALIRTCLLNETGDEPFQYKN
Method: The procedure was adapted from an existing protocol. To a reaction mixture in a 1.5 mL microcentrifuge tube containing 10 mM substrate, 10 mM ATP, 20 mM MgCl2, 40 mM NH4Cl, 25 mM 2-mercaptoethanol in 100 mM imidazole–HCl buffer pH 7.0, recombinant human glutamine synthetase (final concentration: 5 ng/mL) was added. The tubes were incubated in a preheated thermomixer at 37 °C and shaken at 600 rpm (30 s on, 30 s off). 5 μL aliquots were collected in triplicate every 5 min and immediately diluted with 195 μL of cold 60% ACN containing 10 μM Glu-d5 and Gln-d5 as internal standards in a 96 well plate. After collecting all samples, 200 μL of ACN was added to all wells and the plate was shaken at 1000 rpm for 5 min at room temperature, and then stored at − 80 °C until analysis.

[3] = test system: primary murine cerebral astrocytes; assay: Astrocyte transport and metabolism of 2MeGlu; format: cell-based, mouse; settings: 1 mM substrate, 2 h, 37 °C
Method: Primary astrocytes from C57Bl/6 mouse brain were cultured in complete astrocyte growth medium at 37 °C at 5% CO2 on 96 well plates. Cells were exposed to 1 mM compound in 100 μL medium for 2 h at 37 °C. Supernatants were collected, centrifuged at 2500g for 10 min at 4 °C. 10 μL aliquots were diluted with 190 μL 60% ACN containing 10 μM Glu-d5 and Gln-d5. Cells were quickly washed with 250 μL cold PBS twice and suspended in 200 μL of 60% ACN containing 10 μM Glu-d5 and Gln-d5. All samples were shaken at 1000 rpm for 5 min and then stored at – 80 °C.

[4] = read-out: % of radioligand binding inhibition, mGluR5 (first line of Table S4)
[5] = read-out: % of radioligand binding inhibition, mGluR5 (second line of Table S4)

SMILES	inhibition at 100 µM (mGluR1)	inhibition at 100 µM (mGluR2)	inhibition at 100 µM (mGluR5; [4])	inhibition at 100 µM (mGluR5; [5])	% of radioligand binding inhibition, AMPA nonspec (AMPA nonspecific)	EC50 (GABAA α2β2γ2)	EC50 (GABAA α2β3γ2)	EC50 (GABAA α3β1γ2)	EC50 (GABAA α3β2γ2)	EC50 (GABAA α3β3γ2)	inhibition at 100 µM (GABAB (B1/B2))	inhibition at 100 µM (GABAB (B1b/B2))	Potassium-induced release from preloaded synaptosomes [1]	Substrate for glutamine synthetase (GS) [2]	Astrocyte uptake and conversion to 2MeGln [3]	IC50 (GABAA α3β3γ2; antagonist mode)
C[C@@](N)(CCC(=O)O)C(=O)O [(R)-2MeGlu, (R)-2-methylglutamic acid]	-3%	-3%	-20%	-2%	15%	660 µM	622 µM	742 µM	> 1000 µM	959 µM	5%	13%	not significantly altered by depolarization	not a substrate for GS	not detected within astrocytes in significant amounts, and no conversion to 2MeGln was detected	–
C[C@](N)(CCC(=O)O)C(=O)O [(S)-2MeGlu, (S)-2-methylglutamic acid]	6%	25%	11%	-4%	12%	530 µM	342 µM	782 µM	961 µM	725 µM	5%	14%	released upon depolarization in a manner very similar to endogenous Glu	is a substrate for GS	transported into astrocytes and then converted into 2MeGln	978 µM
